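Results reflect a 48-hour exposure of cells in 96-well plates to compound at five concentrations. Here, GI50 denotes the concentration required for 50% inhibition of growth. TGI marks complete inhibition of growth.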
What was measured:
Test in all cases: DTP human tumour cell line panel, 48 h
[1] = test system: SK-MEL-28 melanoma
[2] = test system: OVCAR-4 ovarian
[3] = test system: NCI-H226 lung
[4] = test system: DU-145 prostate
[5] = test system: SK-MEL-5 melanoma
[6] = test system: KM12 colon
[7] = test system: IGROV1 ovarian
[8] = test system: OVCAR-8 ovarian
[9] = test system: RXF 393 renal
[10] = test system: COLO 205 colon

Row | SMILES | GI50 [1] [µM] | TGI [1] [µM] | GI50 [2] [µM] | TGI [2] [µM] | GI50 [3] [µM] | TGI [3] [µM] | GI50 [4] [µM] | TGI [4] [µM] | GI50 [5] [µM] | TGI [5] [µM] | GI50 [6] [µM] | TGI [6] [µM] | GI50 [7] [µM] | TGI [7] [µM] | GI50 [8] [µM] | TGI [8] [µM] | GI50 [9] [µM] | TGI [9] [µM] | GI50 [10] [µM] | TGI [10] [µM]
1 | CCCCCCCCCCCCCCCC[N+](C)(CCO)Cc1cnc[nH]1 (stereo not drawn) | 2.7 | 9.78 | 0.978 | 56.4 | 1.51 | 7.72 | 1.23 | 4.2 |  |  |  |  |  |  |  |  |  |  |  | 
2 | CC(=O)[O-].[Mn+3].[O-]c1ccccc1C=NCCN=Cc1ccccc1[O-] | > 100 | > 100 | > 100 | > 100 | > 100 | > 100 |  |  | 94.8 | > 100 | 84.9 | > 100 | > 100 | > 100 | > 100 | > 100 | > 100 | > 100 | > 100 | > 100
3 | O=C(c1ccccc1)c1oc2ccc(Br)cc2c1-c1cnn(-c2ccccc2)c1 |  | > 100 |  | > 100 |  |  |  |  |  |  |  | > 100 |  | > 100 |  |  |  | > 100 |  | > 100
4 | Cc1[nH]c2ccccc2c1-c1cc(-c2cc(-c3c(C)[nH]c4ccccc34)nc(N)n2)nc(N)n1 |  | > 100 |  | > 100 |  | > 100 |  |  |  | > 100 |  | > 100 |  | > 100 |  | > 100 |  |  |  | > 100
5 | CN(C)CCNC(=O)c1cccc2c(Nc3ccc(S(N)(=O)=O)cc3)c3ccccc3nc12 |  | 3 |  | 5.77 |  | 3.05 |  |  |  | 10.3 |  |  |  | 16 |  | 3.73 |  |  |  | 1.75
6 | Cc1nc(-c2ccccc2)cc2c1c(=O)oc1ccccc12 |  | > 100 |  | > 100 |  | > 100 |  |  |  | > 100 |  | > 100 |  | > 100 |  | > 100 |  | > 100 |  | > 100
7 | CN(CCc1ccccn1)c1nc(=[N+](C)C)ss1 |  | > 100 |  | > 100 |  |  |  |  |  | > 100 |  | > 100 |  | > 100 |  | > 100 |  | > 100 |  | > 100
8 | CC(=O)O[C@H]1CCC2[C@@H]3CCC4=C(O)C(=O)C(C#N)C[C@]4(C)C3CC[C@@]21C (stereo partly drawn) |  | > 100 |  | 90.9 |  | > 100 |  |  |  | 71.1 |  | > 100 |  | > 100 |  | > 100 |  | > 100 |  | 84.4
9 | O=C(Cc1nc2ccccc2s1)C(=O)Nc1cccc(Cl)c1 |  | > 100 |  | > 100 |  | > 100 |  |  |  | > 100 |  | > 100 |  | > 100 |  | > 100 |  | > 100 |  | > 100
10 | COC1=CC23CCCN2CCc2cc4c(cc2C3C1O)OCO4 (stereo not drawn) |  | > 100 |  | > 100 |  | > 100 |  | > 100 |  | 54 |  | > 100 |  | > 100 |  | > 100 |  |  |  | 64.2
11 | O=C(/C=N/O)Nc1cc(Cl)c(Cl)cc1Cl |  | > 100 |  | > 100 |  |  |  | > 100 |  | 33 |  | 84.3 |  | > 100 |  | > 100 |  | 95.3 |  | 87.4
12 | CCOC(=O)C(=O)Nc1ccc(Cl)cc1C |  | > 100 |  | > 100 |  | > 100 |  |  |  | > 100 |  | > 100 |  | > 100 |  | > 100 |  | > 100 |  | > 100
13 | CC(C)C1CC2C(=O)N(c3ccccc3)C(=O)C2c2[nH]c3ccccc3c21 (stereo not drawn) |  | > 100 |  | 5.63 |  | 36.8 |  |  |  | > 100 |  | > 100 |  | > 100 |  | 40.1 |  | 57.4 |  | 
14 | COc1ccc(Cc2cc3c(cc2OCC(=O)O)OCO3)cc1 |  | > 100 |  | > 100 |  |  |  |  |  | > 100 |  | > 100 |  | > 100 |  | > 100 |  | > 100 |  | > 100
15 | CC1=C(C(=O)NCc2ccccc2)C(c2ccc([N+](=O)[O-])cc2)C(C(=O)NCc2ccccc2)=C(C)N1 |  | > 100 |  | 47.9 |  | > 100 |  |  |  | > 100 |  | > 100 |  | > 100 |  | > 100 |  | 86.5 |  | 83.5
16 | O=C1c2ccccc2NC1(c1ccccc1)c1c(-c2ccccc2)[nH]c2ccccc12 (stereo not drawn) |  | > 100 |  | > 100 |  |  |  |  |  |  |  | > 100 |  | > 100 |  | > 100 |  | 64.1 |  | 35.3
17 | COc1ccc(NC(=O)CC/C(CC(=O)C(C)(C)C)=N\NC(=O)C(N)=O)cc1 |  | > 100 |  | > 100 |  | > 100 |  |  |  |  |  | > 100 |  | > 100 |  | > 100 |  | > 100 |  | > 100
18 | CC#C/C(=N\OC[C@H]1COCCN1)c1ccc2ncnc(Nc3ccc(OCc4cccc(F)c4)c(Cl)c3)c2c1 | 1.77 | 3.34 | 1.52 | 3.16 | 12 | 40.3 | 1.1 | 2.36 | 1.85 | 3.45 |  |  |  |  | 1.76 | 4.27 |  |  | 1.77 | 3.33
19 | Cc1ccccc1C(=O)Oc1ccc(O)cc1 |  |  |  | > 100 |  | > 100 |  |  |  | > 100 |  | > 100 |  | > 100 |  | > 100 |  | > 100 |  | > 100
20 | COC(=O)CCC(=O)Nc1cc(Cl)ccc1Cl |  | > 100 |  | > 100 |  | > 100 |  |  |  | > 100 |  | > 100 |  | > 100 |  | > 100 |  | 65.8 |  | 
21 | O=C(O)/C(Cl)=C(\Cl)C(=O)NC1C2CC3CC(C2)CC1C3 (stereo not drawn) |  | > 100 |  | > 100 |  | > 100 |  |  |  | > 100 |  | 96.2 |  | > 100 |  | > 100 |  |  |  | > 100
22 | CC(=O)O[C@@H]1[C@@H](O)C2=C3[C@]4(C)[C@@H]1C(C)(C)C(=O)C[C@@H]4[C@]3(O)[C@H](OC(C)=O)[C@@]1(C[C@@H]1C)C2=O |  | 37.1 |  | 43.9 |  |  |  | 33.8 |  | 48.8 |  | 30.8 |  | 30.9 |  | 34.2 |  |  |  | 34.2
23 | CC1=C(C(=O)Nc2cc(=O)n(C)c(=O)n2C)C(c2ccc([N+](=O)[O-])cc2)C(C(=O)Nc2cc(=O)n(C)c(=O)n2C)=C(C)N1 |  | > 100 |  | > 100 |  | > 100 |  |  |  |  |  | > 100 |  | > 100 |  | > 100 |  | > 100 |  | > 100
